In patent US20250388574A1, “HETEROCYCLIC COMPOUNDS AS TRIGGERING RECEPTOR EXPRESSED ON MYELOID CELLS 2 AGONISTS AND METHODS OF USE” (AMGEN INC., priority 2020, published 2025):

Molecular target: hTREM2 (Homo sapiens, UniProt Q9NZC2)
Assay: Phospho-Syk AlphaScreen/AlphaLISA assay in TREM2 and DAP12 overexpressing HEK293 cells (Example A1)
Assay type: cell-based
Design: expressed in transfected cells
Conditions: HEK293 cells; for EC50: read-out: hTREM2 EC50
Method in brief: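 Single-cell-cloned HEK293 stably overexpressing TREM2 and DAP12, plated 20,000 cells/well for 20 h, then exposed to compounds (1% DMSO) 45 min at room temperature. Lysates probed for phospho-Syk by AlphaLISA sandwich (anti-pSyk, biotinylated anti-Syk); signal normalized to percent of control (100 nM anti-TREM2 antibody vs isotype) and fitted by 4-parameter logistic.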

Chain of hTREM2 (Q9NZC2 19-230): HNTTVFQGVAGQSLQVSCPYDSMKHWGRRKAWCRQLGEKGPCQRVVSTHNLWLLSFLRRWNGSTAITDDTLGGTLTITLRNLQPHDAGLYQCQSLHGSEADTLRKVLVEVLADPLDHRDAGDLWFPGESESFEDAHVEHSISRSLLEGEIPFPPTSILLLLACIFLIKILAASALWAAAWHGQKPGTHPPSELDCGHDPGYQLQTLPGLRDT
Chain of hTREM2 (O43914 22-113 partner): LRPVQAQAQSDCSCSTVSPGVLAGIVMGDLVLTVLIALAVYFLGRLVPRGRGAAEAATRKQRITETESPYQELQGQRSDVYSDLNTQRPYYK

Row | Emax | EC50 | Structure (SMILES)
1 | ++++ (Emax>300) | 500 to 3000 nM | Cc1nc2cc(N3CCOC(c4ccnn4C)C3)nc(-c3ccc(Cl)cc3F)c2c(=O)n1C (stereo not shown) [Example 52, 5-(4-chloro-2-fluorophenyl)-2,3-dimethyl-7-(2-(1-methyl-1H-pyrazol-5-yl)-4-morpholinyl)pyrido[4,3-d]pyrimidin-4(3H)-one]
2 | ++++ (Emax>300) | 500 to 3000 nM | Cc1nc2cc(N3CCOC(CC(F)(F)F)C3)nc(-c3ccc(Cl)cc3F)c2c(=O)n1C (stereo not shown) [Example 53, 5-(4-chloro-2-fluorophenyl)-2,3-dimethyl-7-(2-(2,2,2-trifluoroethyl)-4-morpholinyl)pyrido[4,3-d]pyrimidin-4(3H)-one]
3 | ++++ (Emax>300) | 50 to 500 nM | Cc1ccc(C2CN(c3cc4nc(C)n(C)c(=O)c4c(-c4ccc(Cl)cc4F)n3)CCO2)cn1 (stereo not shown) [Example 60, 5-(4-chloro-2-fluorophenyl)-2,3-dimethyl-7-(2-(6-methyl-3-pyridinyl)-4-morpholinyl)pyrido[4,3-d]pyrimidin-4(3H)-one]
4 | +++ (Emax>200 and ≤300) | < 50 nM | Cc1cc([C@H]2CN(c3cc4nc(C)n(C)c(=O)c4c(-c4ccc(Cl)cc4F)n3)CCO2)ccn1 [Example 61, 5-(4-chloro-2-fluorophenyl)-2,3-dimethyl-7-((2S)-2-(2-methyl-4-pyridinyl)-4-morpholinyl)pyrido[4,3-d]pyrimidin-4(3H)-one]
5 | +++ (Emax>200 and ≤300) | 50 to 500 nM | Cc1cc([C@@H]2CN(c3cc4nc(C)n(C)c(=O)c4c(-c4ccc(Cl)cc4F)n3)CCO2)ccn1 [Example 62, 5-(4-chloro-2-fluorophenyl)-2,3-dimethyl-7-((2R)-2-(2-methyl-4-pyridinyl)-4-morpholinyl)pyrido[4,3-d]pyrimidin-4(3H)-one]
6 | ++++ (Emax>300) | 500 to 3000 nM | Cc1nccc(C2CN(c3cc4nc(C)n(C)c(=O)c4c(-c4ccc(Cl)cc4F)n3)CCO2)n1 (stereo not shown) [Example 63, 5-(4-chloro-2-fluorophenyl)-2,3-dimethyl-7-(2-(2-methyl-4-pyrimidinyl)-4-morpholinyl)pyrido[4,3-d]pyrimidin-4(3H)-one]
7 | +++ (Emax>200 and ≤300) | 50 to 500 nM | Cc1nn(C)cc1C1CN(c2cc3nc(C)n(C)c(=O)c3c(-c3ccc(Cl)cc3F)n2)CCO1 (stereo not shown) [Example 68, 5-(4-chloro-2-fluorophenyl)-7-(2-(1,3-dimethyl-1H-pyrazol-4-yl)-4-morpholinyl)-2,3-dimethylpyrido[4,3-d]pyrimidin-4(3H)-one]
8 | ++++ (Emax>300) | 50 to 500 nM | Cc1nc2cc(N3CCOC(c4cncc(F)c4)C3)nc(-c3ccc(Cl)cc3F)c2c(=O)n1C (stereo not shown) [Example 69, 5-(4-chloro-2-fluorophenyl)-7-(2-(5-fluoro-3-pyridinyl)-4-morpholinyl)-2,3-dimethylpyrido[4,3-d]pyrimidin-4(3H)-one]
9 | ++++ (Emax>300) | 50 to 500 nM | CCc1nnc(C2CN(c3cc4nc(C)n(C)c(=O)c4c(-c4ccc(Cl)cc4F)n3)CCO2)o1 (stereo not shown) [Example 70, 5-(4-chloro-2-fluorophenyl)-7-(2-(5-ethyl-1,3,4-oxadiazol-2-yl)-4-morpholinyl)-2,3-dimethylpyrido[4,3-d]pyrimidin-4(3H)-one]
10 | ++++ (Emax>300) | 50 to 500 nM | Cc1csc(C2CN(c3cc4nc(C)n(C)c(=O)c4c(-c4ccc(Cl)cc4F)n3)CCO2)n1 (stereo not shown) [Example 75, 5-(4-chloro-2-fluorophenyl)-2,3-dimethyl-7-(2-(4-methyl-1,3-thiazol-2-yl)-4-morpholinyl)pyrido[4,3-d]pyrimidin-4(3H)-one]
11 | ++++ (Emax>300) | 50 to 500 nM | Cc1nc2cc(N3CCOC(c4ccc(C#N)cc4)C3)nc(-c3ccc(Cl)cc3F)c2c(=O)n1C (stereo not shown) [Example 90, 4-(4-(5-(4-chloro-2-fluorophenyl)-2,3-dimethyl-4-oxo-3,4-dihydropyrido [4,3-d]pyrimidin-7-yl)-2-morpholinyl)benzonitrile]
